In patent US20220081421A1, “ANTIBACTERIAL COMPOUNDS” (Forge Therapeutics, Inc., priority 2018, published 2022) one finds MIC data, which are given here for 26 compounds.

Molecules are shown by their SMILES. In brackets after ≈: the same amount, converted by molar mass.

One assay has as its system E. coli. The assay can be described thus: MIC by broth microdilution (CLSI), E. coli. Type of assay: cell-based. The conditions noted are these: Escherichia coli, broth microdilution, cation adjusted Mueller-Hinton Broth, 35° C., 18-24 h; read-out: E. coli MIC. As for the experimental part:
(§1) Minimal inhibitory concentrations (MIC) were determined by the broth microdilution method in accordance with the Clinical and Laboratory Standards Institute (CLSI) guidelines. In brief, organism suspensions were adjusted to a 0.5 McFarland standard to yield a final inoculum between 3×10^5 and 7×10^5 colony-forming units (CFU)/mL. Drug dilutions and inocula were made in sterile, cation adjusted Mueller-Hinton Broth (Beckton Dickinson). An inoculum volume of 100 μL was added to wells containing 100 μL of broth with 2-fold serial dilutions of drug. All inoculated microdilution trays were incubated in ambient air at 35° C. for 18-24 h. Following incubation, the lowest concentration of the drug that prevented visible growth (OD600 nm<0.05) was recorded as the MIC. Performance of the assay was monitored by the use of laboratory quality-control strains and levofloxacin, a compound with a defined MIC spectrum, in accordance with CLSI guidelines.

Another assay concerns K. pneumoniae. Briefly: MIC by broth microdilution (CLSI), K. pneumoniae. Type of assay: cell-based. The conditions noted are these: Klebsiella pneumoniae, broth microdilution, cation adjusted Mueller-Hinton Broth, 35° C., 18-24 h; read-out: K. pneumoniae MIC. The protocol:
as §1
A general note: Dilution methods test growth across graded concentrations, often in twofold steps.

Usually MIC stands for the least concentration at which growth counts as inhibited.

In the case of `Nc1ccc(C#Cc2ccc(CC(C(=O)NCC(F)F)c3nc[nH]c(=O)c3O)cc2)cn1` (stereo not shown) [Compound 28, 3-(4-((6-aminopyridin-3-yl)ethynyl)phenyl)-N-(2,2-difluoroethyl)-2-(5-hydroxy-6-oxo-1,6-dihydropyrimidin-4-yl)propanamide], the MIC was 8 to 32 µg/mL (≈ 18.2 to 72.8 µM) in the assay with E. coli and more than 32 µg/mL in the assay with K. pneumoniae.
On the same counts, the results for `COC(=O)NCC(Cc1ccc(C#Cc2ccc(CN3CCOCC3)cc2)cn1)c1nc[nH]c(=O)c1O` (stereo not shown) [Compound 29, methyl (2-(5-hydroxy-6-oxo-1,6-dihydropyrimidin-4-yl)-3-(5-((4-(morpholinomethyl)phenyl)ethynyl)pyridin-2-yl)propyl)carbamate] are more than 32 µg/mL and more than 32 µg/mL.
The corresponding values for `O=c1[nH]cnc(C(CNCCF)Cc2ccc(C#Cc3ccc(CN4CCOCC4)cn3)cc2)c1O` (stereo not shown) [Compound 30, 6-(1-((2-fluoroethyl)amino)-3-(4-((5-(morpholinomethyl)pyridin-2-yl)ethynyl)phenyl)propan-2-yl)-5-hydroxypyrimidin-4(3H)-one] are more than 32 µg/mL and more than 32 µg/mL.
The corresponding values for `O=c1[nH]cnc(C(CNCCF)Cc2ccc(C#Cc3ccc(CN4CCOCC4)nc3)cc2)c1O` (stereo not shown) [Compound 31, 6-(1-((2-fluoroethyl)amino)-3-(4-((6-(morpholinomethyl)pyridin-3-yl)ethynyl)phenyl)propan-2-yl)-5-hydroxypyrimidin-4(3H)-one] are more than 32 µg/mL and more than 32 µg/mL.
Turning to `O=C(NCCO)c1ccc(C#CC#Cc2ccc(CC(CO)c3nc[nH]c(=O)c3O)cc2)cc1` (stereo not shown) [Compound 32, 4-((4-(3-hydroxy-2-(5-hydroxy-6-oxo-1,6-dihydropyrimidin-4-yl)propyl)phenyl)buta-1,3-diyn-1-yl)-N-(2-hydroxyethyl)benzamide], the MIC in the assay on E. coli and in the assay on K. pneumoniae was 1 to 8 µg/mL (≈ 2.19 to 17.5 µM) in each case.
Regarding `C=C(Cc1ccc(C#CC#Cc2ccc(C(=O)N3CCN(C)CC3)cc2)cc1)c1nc[nH]c(=O)c1O` [Compound 33, 5-hydroxy-6-(3-(4-((4-(4-methylpiperazine-1-carbonyl)phenyl)buta-1,3-diyn-1-yl)phenyl)prop-1-en-2-yl)pyrimidin-4(3H)-one], the MIC with E. coli and with K. pneumoniae was 1 to 8 µg/mL (≈ 2.09 to 16.7 µM) each time.
As for `C=CCNCC(Cc1ccc(C#CC#Cc2ccc(C(=O)NCCO)cc2)cc1)c1nc[nH]c(=O)c1O` (stereo not shown) [Compound 34, 4-((4-(3-(allylamino)-2-(5-hydroxy-6-oxo-1,6-dihydropyrimidin-4-yl)propyl)phenyl)buta-1,3-diyn-1-yl)-N-(2-hydroxyethyl)benzamide], the values for the minimum inhibitory concentration (MIC) in the assay with E. coli and in the assay on K. pneumoniae were 1 to 8 µg/mL (≈ 2.01 to 16.1 µM) and 8 to 32 µg/mL (≈ 16.1 to 64.4 µM), respectively.
Regarding `C=CCNCC(Cc1ccc(C#CC#Cc2ccc(C(=O)O)cc2)cc1)c1nc[nH]c(=O)c1O` (stereo not shown) [Compound 35, 4-((4-(3-(allylamino)-2-(5 hydroxy-6-oxo-1,6-dihydropyrimidin-4-yl)propyl)phenyl)buta-1,3-diyn-1-yl)benzoic acid], the MIC was 1 to 8 µg/mL (≈ 2.21 to 17.6 µM) in the assay on E. coli and more than 32 µg/mL in the assay with K. pneumoniae.
On the same counts, the results for `C=CCNCC(Cc1ccc(C#CC#Cc2ccccc2N)cc1)c1nc[nH]c(=O)c1O` (stereo not shown) [Compound 36, 6-(1-(allylamino)-3-(4-((2-aminophenyl)buta-1,3-diyn-1-yl)phenyl)propan-2-yl)-5-hydroxypyrimidin-4(3H)-one] are 8 to 32 µg/mL (≈ 18.8 to 75.4 µM) and more than 32 µg/mL.
The corresponding values for `C=CCNCC(Cc1ccc(C#CC#Cc2cnc(C)nc2)cc1)c1nc[nH]c(=O)c1O` (stereo not shown) [Compound 37, 6-(1-(allylamino)-3-(4-((2-methylpyrimidin-5-yl)buta-1,3-diyn-1-yl)phenyl)propan-2-yl)-5-hydroxypyrimidin-4(3H)-one] are 8 to 32 µg/mL (≈ 18.8 to 75.2 µM) and more than 32 µg/mL.
On the same counts, the results for `O=C(NCC(F)F)C(Cc1ccc(-c2ccc(-n3cccn3)cc2)cc1)c1nc[nH]c(=O)c1O` (stereo not shown) [Compound 38, 3-(4′-(1H-pyrazol-1-yl)-[1,1-biphenyl]-4-yl)-N-(2,2-difluoroethyl)-2-(5-hydroxy-6-oxo-1,6-dihydropyrimidin-4-yl)propanamide] are more than 32 µg/mL and more than 32 µg/mL.
For the compound `N#Cc1ccc(-c2ccc(CC(C(=O)NCC(F)F)c3nc[nH]c(=O)c3O)cc2)cc1` (stereo not shown) [Compound 39, 3-(4′-cyano-[1,1′-biphenyl]-4-yl)-N-(2,2-difluoroethyl)-2-(5-hydroxy-6-oxo-1,6-dihydropyrimidin-4-yl)propanamide], the minimum inhibitory concentration (MIC) in the assay with E. coli and in the assay on K. pneumoniae was more than 32 µg/mL each time.
For the compound `O=c1[nH]cnc(C2(Cn3ccc(C#Cc4ccc(CN5CCOCC5)cc4)cc3=O)CC2)c1O` [Compound 43, 5-hydroxy-6-(1-((4-((4-(morpholinomethyl)phenyl)ethynyl)-2-oxopyridin-1(2H)-yl)methyl)cyclopropyl) pyrimidin-4(3H)-one], the minimal inhibitory concentration (MIC) with E. coli and in the assay with K. pneumoniae was more than 32 µg/mL each time.
As for `O=C(NCC(F)F)C(Cc1ccc(C#CC#CC2CC2)c(F)c1)c1nc[nH]c(=O)c1O` (stereo not shown) [Compound 61, 3-(4-(cyclopropylbuta-1,3-diyn-1-yl)-3-fluorophenyl)-N-(2,2-difluoroethyl)-2-(5-hydroxy-6-oxo-1,6-dihydropyrimidin-4-yl)propanamide], the MIC in the assay with E. coli and in the assay on K. pneumoniae was 1 to 8 µg/mL (≈ 2.33 to 18.6 µM) each time.
With `C=CCNCC(Cc1ccc(C#CC#Cc2cnn(C)c2)cc1)c1nc[nH]c(=O)c1O` (stereo not shown) [Compound 62, 6-(1-(allylamino)-3-(4-((1-methyl-1H-pyrazol-4-yl)buta-1,3-diyn-1-yl)phenyl)propan-2-yl)-5-hydroxypyrimidin-4(3H)-one], the MIC in the assay with E. coli is 1 to 8 µg/mL (≈ 2.42 to 19.3 µM); in the assay with K. pneumoniae, 8 to 32 µg/mL (≈ 19.3 to 77.4 µM).
The corresponding values for `CC(C)C#CC#Cc1ccc(CC(C(=O)NCC(F)F)c2nc[nH]c(=O)c2O)cc1F` (stereo not shown) [Compound 63, N-(2,2-difluoroethyl)-3-(3-fluoro-4-(5-methylhexa-1,3-diyn-1-yl)phenyl)-2-(5-hydroxy-6-oxo-1,6-dihydropyrimidin-4-yl)propanamide] are 1 to 8 µg/mL (≈ 2.32 to 18.5 µM) and 8 to 32 µg/mL (≈ 18.5 to 74.2 µM).
Regarding `CC(=O)NCC(Cc1ccc(C#CC#CC2CC2)c(F)c1)c1nc[nH]c(=O)c1O` (stereo not shown) [Compound 64, N-(3-(4-(cyclopropylbuta-1,3-diyn-1-yl)-3-fluorophenyl)-2-(5-hydroxy-6-oxo-1,6-dihydropyrimidin-4-yl)propyl)acetamide], the minimal inhibitory concentration (MIC) in the assay on E. coli and in the assay on K. pneumoniae was 1 to 8 µg/mL (≈ 2.54 to 20.3 µM) in each case.
Consider `CC(C)C#CC#Cc1ccc(CC(CNCCF)c2nc[nH]c(=O)c2O)cc1` (stereo not shown) [Compound 66, 6-(1-((2-fluoroethyl)amino)-3-(4-(5-methylhexa-1,3-diyn-1-yl)phenyl)propan-2-yl)-5-hydroxypyrimidin-4(3H)-one], for which the minimal inhibitory concentration (MIC) in the assay on E. coli and in the assay with K. pneumoniae was 8 to 32 µg/mL (≈ 21 to 83.9 µM) each time.
For the compound `C=CCNCC(Cc1ccc(C#CC#Cc2cn[nH]c2)cc1)c1nc[nH]c(=O)c1O` (stereo not shown) [Compound 67, 6-(1-(4-((1H-pyrazol-4-yl)buta-1,3-diyn-1-yl)phenyl)-3-(allylamino)propan-2-yl)-5-hydroxypyrimidin-4(3H)-one], the figures for the MIC with E. coli and in the assay on K. pneumoniae were 8 to 32 µg/mL (≈ 20 to 80.1 µM) and more than 32 µg/mL, respectively.
On the same counts, the results for `O=c1[nH]cnc(C(CNCCF)Cc2ccc(C#CC#CC3CC3)cc2)c1O` (stereo not shown) [Compound 68, 6-(1-(4-(cyclopropylbuta-1,3-diyn-1-yl)phenyl)-3-((2-fluoroethyl)amino)propan-2-yl)-5-hydroxypyrimidin-4(3H)-one] are more than 32 µg/mL and more than 32 µg/mL.
On to `O=C1N(CCc2nc[nH]c(=O)c2O)Cc2cc(Br)cn21` [Compound 69, 6-bromo-2-(2-(5-hydroxy-6-oxo-1,6-dihydropyrimidin-4-yl)ethyl)-1,2-dihydro-3H-pyrrolo[1,2-c]imidazol-3-one], for which the minimal inhibitory concentration (MIC) in the assay on E. coli and in the assay on K. pneumoniae was more than 32 µg/mL each time.
For `O=C(Cc1nc[nH]c(=O)c1O)N1CCC(C#Cc2ccc(CN3CCOCC3)cc2)CC1` [Compound 77, 5-hydroxy-6-(2-(4-((4-(morpholinomethyl)phenyl)ethynyl)piperidin-1-yl)-2-oxoethyl)pyrimidin-4(3H)-one], the values for the minimal inhibitory concentration (MIC) with E. coli and with K. pneumoniae were 8 to 32 µg/mL (≈ 18.3 to 73.3 µM) and more than 32 µg/mL, respectively.
`O=c1[nH]cnc(CCN2CCC(C#Cc3ccc(CN4CCOCC4)cc3)CC2)c1O` [Compound 78, 5-hydroxy-6-(2-(4-((4-(morpholinomethyl)phenyl)ethynyl)piperidin-1-yl)ethyl)pyrimidin-4(3H)-one]: the MIC in the assay on E. coli was 8 to 32 µg/mL (≈ 18.9 to 75.7 µM); in the assay on K. pneumoniae, more than 32 µg/mL.
On the same counts, the results for `O=C(NCCc1nc[nH]c(=O)c1O)n1cc(C#Cc2ccc(CN3CCOCC3)cc2)cc1CO` [Compound 79, N-(2-(5-hydroxy-6-oxo-1,6-dihydropyrimidin-4-yl)ethyl)-2-(hydroxymethyl)-4-((4-(morpholinomethyl)phenyl)ethynyl)-1H-pyrrole-1-carboxamide] are 8 to 32 µg/mL (≈ 16.8 to 67 µM) and more than 32 µg/mL.
The corresponding values for `O=c1[nH]cnc(Cn2ccc3cc(C#Cc4ccc(CN5CCOCC5)cc4)cnc32)c1O` [Compound 80, 5-hydroxy-6-((5-((4-(morpholinomethyl)phenyl)ethynyl)-1H-pyrrolo[2,3-b]pyridin-1-yl)methyl)pyrimidin-4(3H)-one] are 8 to 32 µg/mL (≈ 18.1 to 72.5 µM) and more than 32 µg/mL.
Regarding `O=c1[nH]cnc(C2CC2c2ccc(C#Cc3ccc(CN[C@@H]4CCNC4)cc3)cc2)c1O` (stereo partly drawn) [Compound 103, 5-hydroxy-6-(2-(4-((4-((((R)-pyrrolidin-3-yl)amino)methyl)phenyl)ethynyl)phenyl)cyclopropyl) pyrimidin-4(3H)-one], the MIC in the assay with E. coli is 1 to 8 µg/mL (≈ 2.34 to 18.8 µM); in the assay with K. pneumoniae, more than 32 µg/mL.
